Measurements reported in US12421212B2, “Substituted benzenecarboxamides as IL-17A modulators” (DiCE Alpha, Inc., priority 2019, dated 2025).

Molecular target: T1, IL-17A/A (Homo sapiens, UniProt Q16552)
T1 construct: purchased Genscript Z03228
T1 sequence (Q16552 24-155): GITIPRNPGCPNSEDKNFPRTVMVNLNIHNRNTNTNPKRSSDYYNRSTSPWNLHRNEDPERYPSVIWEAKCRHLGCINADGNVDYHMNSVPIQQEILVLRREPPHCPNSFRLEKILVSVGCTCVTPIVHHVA
Experiment: IL-17A/A HEK-Blue Cell Assay
Assay type: cell-based
Settings: HEK-Blue IL-17A reporter cell line, SEAP readout at A630, 20 hours incubation with IL-17A/A, top concentration 10 uM, 1 uM or 0.3 uM; for IC50: read-out: IL-17A/A inhibition (pIC50) (converted)

Row | IC50 | SMILES | IL-17A/A inhibition (pIC50)
1 | < 10 nM | CCC(=O)N[C@@H](C(=O)N1CCN(C)C[C@@H]1C)[C@@H](C)c1ccc(NC(=O)[C@@H](NC(=O)c2nonc2CC)[C@H]2CC[C@H](C)CC2)c(F)c1 [Compound 456] | –
2 | 10 to 100 nM | CCC(=O)N[C@@H](C(=O)N1C[C@@H](C)N[C@@H](C)C1)[C@@H](C)c1ccc(NC(=O)[C@@H](NC(=O)c2ccnn2CC)[C@H]2CC[C@H](C)CC2)c(F)c1 [Compound 425] | –
3 | < 10 nM | CCC(=O)N[C@@H](C(=O)N1CCOCC1)[C@@H](C)c1ccc(NC(=O)[C@@H](NC(=O)C(F)(F)c2cccc(C#N)c2)C2CCCCCC2)c(F)c1 [Compound 349] | –
4 | < 10 nM | CCc1nonc1C(=O)N[C@H](C(=O)Nc1ccc([C@H](C)[C@@H](NC(=O)N(CC)C2CC2)C(=O)N2CCN(C)CC2)cc1F)[C@H]1CC[C@H](C)CC1 [Compound 574] | –
5 | < 10 nM | CCc1nonc1C(=O)N[C@H](C(=O)Nc1ccc([C@H](C)[C@@H](NC(=O)C(C)C)C(=O)N2CCN(C)CC2)cc1F)[C@H]1CC[C@H](C)CC1 [Compound 494] | –
6 | < 10 nM | CCn1nccc1C(=O)N[C@H](C(=O)Nc1ccc([C@H](C)[C@@H](NC(=O)C(C)C2CC2)C(=O)N2CCN(C)[C@@H](C)C2)cc1F)[C@H]1CC[C@H](C)CC1 (some centres unmarked) [Compound 433] | –
7 | 10 to 100 nM | CCn1nccc1C(=O)N[C@H](C(=O)Nc1ccc([C@H](C)[C@@H](NC(=O)c2nonc2C)C(=O)N2CCN(C)CC2)cc1F)[C@H]1CC[C@H](C)CC1 [Compound 473] | –
8 | 100 to 10000 nM | CCC(=O)N[C@@H](C(=O)N1CCN(C)CC1)[C@@H](CC)c1ccc(NC(=O)[C@@H](NC(=O)c2ccnn2CC)C2CCCCC2)cc1 [Compound 680] | –
9 | 10 to 100 nM | CCC(=O)N[C@@H](C(=O)N1CCC(CC(=O)O)CC1)[C@@H](C)c1ccc(NC(=O)[C@@H](NC(=O)c2ccnn2CC)[C@H]2CC[C@H](C)CC2)c(F)c1 [Compound 422] | –
10 | < 10 nM | CCc1nonc1C(=O)N[C@H](C(=O)Nc1ccc([C@H](C)[C@@H](NC(=O)NC2CC2)C(=O)N2CCN(C)CC2)cc1F)[C@H]1CC[C@H](C)CC1 [Compound 517] | –
11 | < 10 nM | CCC(=O)N[C@@H](C(=O)N1CCN(CC)[C@@H](C)C1)[C@@H](C)c1ccc(NC(=O)[C@@H](NC(=O)c2nonc2CC)[C@H]2CC[C@H](C)CC2)c(F)c1 [Compound 467] | –
12 | 10 to 100 nM | CCC(=O)N[C@@H](C(=O)N1CCN(C)CC1)[C@@H](C)c1ccc(NC(=O)[C@@H](NC(=O)c2occc2CC)[C@H]2CC[C@H](C)CC2)c(F)c1 [Compound 524] | –
13 | 10 to 100 nM | CCC(=O)N[C@@H](C(=O)N1CCOCC1)[C@@H](C)c1ccc(NC(=O)[C@@H](NC(=O)c2ccnn2CC)[C@H]2CC[C@H](C)CC2)c(F)c1 [Compound 342] | –
14 | < 10 nM | CCC(=O)N[C@@H](C(=O)N1CCN(C(C)(C)C)CC1)[C@@H](C)c1ccc(NC(=O)[C@@H](NC(=O)c2ccnn2CC)[C@H]2CC[C@H](C)CC2)c(F)c1 [Compound 420] | –
15 | 100 to 10000 nM | CCC(=O)N[C@H](Cc1ccc(NC(=O)[C@@H](NC(=O)C(F)(F)c2cccc(NS(C)(=O)=O)c2)C2CCCCC2)c(F)c1)C(=O)N1CCN(C)CC1 [Compound 642] | –
16 | 10 to 100 nM | CCc1nonc1C(=O)N[C@H](C(=O)Nc1ccc([C@H](C)[C@@H](NC(=O)C2(F)CCC2)C(=O)N2CCN(C)[C@H](C)C2)cc1F)[C@H]1CC[C@H](C)CC1 [Compound 505] | –
17 | 10 to 100 nM | CCc1nonc1C(=O)N[C@H](C(=O)Nc1ccc([C@H](C)[C@@H](NC(=O)c2ccnn2C)C(=O)N2CCN(C)CC2)cc1F)[C@H]1CC[C@H](C)CC1 [Compound 490] | –
18 | 10 to 100 nM | CCC(=O)N[C@@H](C(=O)N1CCN(C)CC1)[C@@H](C)c1ccc(NC(=O)[C@@H](NC(=O)c2conc2C2(C)COC2)[C@H]2CC[C@H](C)CC2)c(F)c1 [Compound 397] | –
19 | 100 to 10000 nM | CCn1nccc1C(=O)N[C@H](C(=O)Nc1ccc(C[C@@H](NC(=O)CC2CC2)C(=O)N2CCN(C)CC2)cc1F)C1CCCCC1 [Compound 650] | –
20 | 100 to 10000 nM | CCC(=O)N[C@H](Cc1ccc(NC(=O)[C@@H](NC(=O)c2coc3ccc(OC)cc23)C2CCCCC2)c(F)c1)C(=O)N1CCN(C)CC1 [Compound 671] | –
21 | < 10 nM | [2H]C([2H])([2H])C1CCC(C(NC(=O)c2nonc2CC)C(=O)Nc2ccc([C@H](C)[C@@H](NC(=O)N(C)C3CC3)C(=O)N3CCN(C)[C@H](C)C3)cc2F)CC1 (single isomer, unassigned) [Compound 615] | –
22 | < 10 nM | CCn1nccc1C(=O)N[C@H](C(=O)Nc1ccc([C@H](C)[C@@H](NC(=O)C(C)C2CC2)C(=O)N2CCN(C)C(C)(C)C2)cc1F)[C@H]1CC[C@H](C)CC1 (some centres unmarked) [Compound 432] | –
23 | 100 to 10000 nM | CCC(=O)N[C@H](Cc1ccc(NC(=O)[C@@H](NC(=O)c2cc(Cl)nn2C)C2CCCCC2)c(F)c1)C(=O)N1CCN(C)CC1 [Compound 765] | –
24 | 10 to 100 nM | CCC(=O)N[C@@H](C(=O)N1C[C@@H](C)N[C@@H](C)C1)[C@@H](C)c1ccc(NC(=O)[C@@H](NC(=O)c2nonc2CC)[C@H]2CC[C@H](C)CC2)c(F)c1 [Compound 447] | –

Further lines, the compound ahead of its results:

Row | SMILES | IC50 | IL-17A/A inhibition (pIC50)
25 | CCC(=O)N[C@@H](C(=O)N1CCN(C)CC1)[C@@H](C)c1ccc(NC(=O)C(NC(=O)c2nonc2CC)C(C)C2CCC(F)(F)CC2)c(F)c1 (single isomer, unassigned) [Compound 590] | – | X3b (compounds were evaluated up to 0.3 uM and inhibited activity at 0.3 uM by less than 20%)
26 | CCC(=O)N[C@@H](C(=O)N1CCN(C)CC1)[C@@H](C)c1ccc(NC(=O)C(NC(=O)c2ccnn2CC)[C@@H](C)c2ccccc2)c(F)c1 (some centres unmarked) [Compound 289] | 10 to 100 nM | –
27 | CCC(=O)N[C@@H](C(=O)N1CCN(C)CC1)[C@@H](C)c1ccc(NC(=O)[C@@H](NC(=O)c2coc3c2COC3)C2CCCCCC2)c(F)c1 [Compound 266] | < 10 nM | –
28 | CCC(=O)N[C@@H](C(=O)N1CCN(C)CC1)[C@@H](C)c1ccc(NC(=O)[C@H](Cc2ccccc2Cl)NC(=O)c2ccnn2CC)c(F)c1 [Compound 742] | – | X2a (compounds were evaluated up to 1 uM and did not inhibit activity by >80%, however they showed some activity at 1 uM (less than 80% and more than 20%))
29 | CCC(=O)N[C@@H](C(=O)N1CCN(C)CC1)[C@@H](C)c1ccc(NC(=O)[C@@H](NC(=O)[C@@H]2CCCN2C)C2CCCCC2)c(F)c1 [Compound 758] | – | X2b (compounds were evaluated up to 1 uM and inhibited activity at 1 uM by less than 20%)
30 | CC(C)NC(=O)N[C@@H](C(=O)N1CCN(C)CC1)[C@@H](C)c1ccc(NC(=O)[C@@H](NC(=O)c2ccnn2C(C)C)C2CCCCCC2)c(F)c1 [Compound 328] | 10 to 100 nM | –
31 | CCn1nccc1C(=O)N[C@H](C(=O)Nc1ccc([C@H](C)[C@@H](NC(=O)C2(F)CC2)C(=O)N2CCN(C)CC2)cc1F)C1CCCCCC1 [Compound 326] | 10 to 100 nM | –
32 | CCC(=O)N[C@@H](C(=O)N1CCN(C)CC1)[C@@H](C)c1ccc(NC(=O)[C@@H](NC(=O)C(F)(F)C2CCNCC2)C2CCCCC2)c(F)c1 [Compound 733] | – | X2b (compounds were evaluated up to 1 uM and inhibited activity at 1 uM by less than 20%)
33 | CCC(=O)N[C@H](Cc1ccc(NC(=O)[C@@H](NC(=O)C(F)(F)c2ccncc2)C2CCCCC2)c(F)c1)C(=O)N1CCN(C)CC1 [Compound 712] | – | X2a (compounds were evaluated up to 1 uM and did not inhibit activity by >80%, however they showed some activity at 1 uM (less than 80% and more than 20%))
34 | CCC(=O)N[C@H](Cc1ccc(NC(=O)[C@@H](NC(=O)C(F)(F)c2ccc(Cl)cc2)C2CCCCC2)c(F)c1)C(=O)N1CCN(C)CC1 [Compound 211] | 100 to 10000 nM | –
35 | CCn1nccc1C(=O)N[C@H](C(=O)Nc1ccc(C[C@@H](Nc2nc(N)nc(C(F)(F)F)n2)C(=O)N2CCN(C)CC2)cc1F)C1CCCCC1 [Compound 700] | – | X2a (compounds were evaluated up to 1 uM and did not inhibit activity by >80%, however they showed some activity at 1 uM (less than 80% and more than 20%))
36 | CCC(=O)N[C@@H](C(=O)N1CCN(C)CC1)[C@@H](C)c1ccc(NC(=O)[C@@H](NC(=O)c2coc3cc(OC)ccc23)C2CCCCCC2)c(F)c1 [Compound 258] | < 10 nM | –
37 | C[C@@H](c1ccc(NC(=O)[C@@H](NC(=O)C(F)(F)c2cccc(C#N)c2)C2CCCCC2)c(F)c1)[C@@H](NC(=O)NC1CC1)C(=O)N1CCN(C)CC1 [Compound 316] | < 10 nM | –
38 | CCC(=O)N[C@@H](C(=O)N1CCN(C)CC1)[C@@H](C)c1ccc(NC(=O)[C@@H](NC(=O)C(F)(F)c2ccc(OC)nc2)[C@H]2CC[C@H](C(F)(F)F)CC2)c(F)c1 [Compound 285] | 10 to 100 nM | –
39 | CC1CCC(C(NC(=O)C(F)(F)c2cccc(C#N)c2)C(=O)Nc2ccc(C(C)C(NC(=O)c3cnns3)C(=O)N3CCN(C)CC3)cc2F)CC1 (centres unmarked) [Compound 336] | < 10 nM | –
40 | CCC(=O)N[C@@H](C(=O)N1CCN(C)CC1)[C@@H](C)c1ccc(NC(=O)[C@@H](NC(=O)c2ccnn2CC2CC2)C2CCCCCC2)c(F)c1 [Compound 271] | < 10 nM | –
41 | CCC(=O)N[C@H](Cc1ccc(NC(=O)[C@@H](NC(=O)C(F)(F)c2ccc(C)nc2)C2CCCCC2)c(F)c1)C(=O)N1CCN(C)CC1 [Compound 208] | 100 to 10000 nM | –
42 | CCC(=O)N[C@@H](C(=O)N1CCN(C)CC1)[C@@H](C)c1ccc(NC(=O)[C@@H](NC(=O)C(F)(F)c2ccc3[nH]ncc3c2)C2CCCCC2)c(F)c1 [Compound 245] | 10 to 100 nM | –
43 | CCC(=O)N[C@H](Cc1ccc(NC(=O)[C@@H](NC(=O)c2cnc(CNS(C)(=O)=O)n2C)C2CCCCC2)c(F)c1)C(=O)N1CCN(C)CC1 [Compound 716] | – | X2b (compounds were evaluated up to 1 uM and inhibited activity at 1 uM by less than 20%)
44 | C[C@@H](c1ccc(NC(=O)[C@@H](NC(=O)c2cnon2)[C@H]2CC[C@H](C)CC2)c(F)c1)[C@@H](NC(=O)c1cnns1)C(=O)N1CCN(C)CC1 [Compound 548] | – | X2b (compounds were evaluated up to 1 uM and inhibited activity at 1 uM by less than 20%)
